Assays:
[1] = Plasma pharmacokinetics in pig (release of R-100 from R-107), LCMS; format: in vivo; conditions: for concentration at 0.08 h: 0.08 hrs post dose; for concentration at 0.17 h: 0.17 hrs post dose; for concentration at 0.25 h: 0.25 hrs post dose; for concentration at 0.5 h: 0.5 hrs post dose; for concentration at 1 h: 1 hrs post dose; for concentration at -0.08 h: −0.08 hrs post dose
Experimental: In the following two experiments, the pharmacokinetic of releasing R-100 from R-107, via R-105 that is the reduced form of R-100, was studied in vivo according to the protocol described herein.
100 μl aliquots plasma obtained from R-107-treated sheep or pig were thawed and 200 μl ice-cold ethanol was added to each 100 μl sample to precipitate protein. Samples were then vortexed, placed on ice for 10 minutes, and then spun down at room temperature for 15 minutes. A first 100 μl supernatant from each spun sample was withdrawn and placed in a labeled HPLC micro vial to which 300 μl MPA (LC mobile phase A) was added, and the vial contents were then mixed and submitted for LCMS analysis (kept at 4° C.). The concentration of R-107 was measured in this sample as was the concentration of R105. A second 100 μl supernatant from each spun sample was added to a labelled HPLC micro vial to which 300 μl MPA and 2 μl of Reducing solution (ascorbic acid, 1.0 mg/ml in water) were added. These vials were vortexed; incubated at 50° C. for 1 hour with gentle shaking; and were then cooled to 4° C. and submitted for LCMS analysis. This sample was analyzed for R105, i.e., reduced form of R-100, and the amount measured thus represents the sum of R-100 and R-105 originally present in the plasma. The concentration of R-100 can be calculated from that of the R-105 in the second sample minus that of R-105 in the first sample. However, the concentrations of R-105 were seen to be low (approximately 10% or less of those of R-100) and so the results reported below as R-100 are not corrected for R-105.
Sets of standards (R-100, R-105 and R-107) were prepared by spiking individually in pig plasma. 100 μl aliquots of these spiked plasma samples, after thawing, were included in the above extraction protocol.
Analysis method were carried out with an Agilent HPLC stack, with column eluate directed, via a diverter valve, into the source of an AB Sciex ‘Qstar Elite’ Hybrid TOF, high-resolution mass spectrometer. LC column: Phenomenex Kinetex C18 2.6u 100A, 2.1×50 mm. LC mobile phase A: H2O with 0.02% trifluoroacetic acid (TFA), 0.1% formic acid (HOF); Phase B: acetonitrile (ACN) with 0.02% TFA, 0.1% HOF. Mobile phase flow rate=500 μl/min. Injection size: 8 μl, via Agilent 1100 u-WPS autosampler.

Density of R-107 = format: physicochemical; design: unit not given here; conditions: oil
[2] = system: limb ischemia reperfusion injury (LIRI); assay: Minipig model of limb ischemia-reperfusion injury; format: in vivo, minipigs; conditions: protocol only; 10, 30, 80 mg/kg/day TID
Experimental: In this study, the efficacy of R-107 in a limb ischemia reperfusion injury (LIRI) is tested. In a large animal model of acute LIRI (n=6 minipigs per group) induced by an endovascular balloon occlusion of the femoral artery for 6 hours, parenteral R-107 (0, 10, 30, 80 mg/kg/day TID) is initiated 10 minutes before reperfusion via direct arterial infusion, followed by an IV infusion thereafter. At 7, 14, and 21 days after reperfusion, limb perfusion (by Doppler flow) is correlated with nerve conduction velocity (NCV, per electromyography, EMG), and muscle strength (by foot pressure on a walking surface) with simultaneous plasma concentrations of R-107.

[3] = system: contrast-induced nephropathy (CIN); assay: Rat model of contrast-induced nephropathy; format: in vivo, Sprague-Dawley rats; conditions: protocol only; 10, 20, 40 mg/kg/day BID IV
Experimental: In order to test the efficacy of R-107 in contrast-induced nephropathy (CIN), a single-blinded study of CIN is carried out in Sprague-Dawley rats (n=10 per group) subjected to dehydration, prostaglandin synthetase inhibition, and an IV challenge of contrast media (CM). A sham injury group is compared to treatment of CM-challenged healthy rats with R-107 (10, 20, 40 mg/kg/day in 5% dextrose, BID IV), N-acetylcysteine (NAC, 100 mg/kg/day in 5% dextrose, BID), or vehicle control (hydroxypropyl cyclodextrin, HPCD) initiated 10 min before CM administration and continued for 48 hours. Rats are evaluated at 48 hours for renal function (blood urea nitrogen to creatinine ratio, BUN:creatinine) and parameters reflecting renal injury, including protein release into the blood (NGAL; kidney injury molecule-1, KIM-1), pro-inflammatory transcription factor expression (cytoplasmic IkBa degradation, nuclear p65 translocation), histologic damage (H&E), mitochondrial swelling (electron microscopy), and nuclear damage and DNA repair (PARP activation and nitrosative stress as noted by poly(ADP-ribose) and 3-nitrotyrosine (3-NT) tissue immunoreactivity). […]

[4] = Conversion of prodrug upon exposure to plasma, biological solutions and tissues; format: in vitro ADME; conditions: stable oil until exposure to plasma
[5] = system: renal ischemia-reperfusion injury; assay: Rat model of renal ischemia-reperfusion injury; format: in vivo, Sprague-Dawley rats; conditions: protocol only; 80 mg/kg IV infusion
[6] = IV R-107 diluted in 4 parts of PEG400, 18 mg/kg over 6 minutes, 24 hrs post dose
[7] = capsule per os of neat R-107 88 mg/kg, 24 hrs post dose
[8] = plasma, IV R-107 diluted in 4 parts of PEG400, 18 mg/kg over 6 minutes
[9] = plasma, IV neat R-107 88 mg/kg over 6 minutes
[10] = plasma, oral, capsule per os of neat R-107 88 mg/kg

With CC(=O)ON1C(C)(C)CC(CO[N+](=O)[O-])C1(C)C (centres unmarked) [R-107, 2,2,5,5-tetramethyl-3-(nitrooxymethyl)pyrrolidin-1-yl acetate] the R-107 in plasma ([1]; IV R-107 diluted in 4 parts of PEG400, 18 mg/kg over 6 minutes, 2 hrs post dose) was “not detected”, the R-107 in plasma ([1]; IV R-107 diluted in 4 parts of PEG400, 18 mg/kg over 6 minutes, 4 hrs post dose) was “not detected” and the R-107 in plasma ([1]; IV R-107 diluted in 4 parts of PEG400, 18 mg/kg over 6 minutes, 8 hrs post dose) was “not detected”. For the same molecule, the R-100 in plasma [1, 6] was “not detected”, the R-107 in plasma [1, 6] was “not detected” and the R-107 in plasma ([1]; IV neat R-107 88 mg/kg over 6 minutes, 6 hrs post dose) was “not detected”. For the same molecule, the R-107 in plasma ([1]; IV neat R-107 88 mg/kg over 6 minutes, 24 hrs post dose) was “not detected”, the R-107 in plasma ([1]; capsule per os of neat R-107 88 mg/kg, 8 hrs post dose) was “not detected” and the R-100 in plasma [1, 7] was “not detected”. For the same molecule, the R-107 in plasma [1, 7] was “not detected”, the concentration at 0.08 h [1, 8] was 2380 ng/mL and the concentration at 0.17 h [1, 8] was 640 ng/mL. For the same molecule, the concentration at 0.25 h [1, 8] was 430 ng/mL, the concentration at 0.5 h [1, 8] was 250 ng/mL and the concentration at 1 h [1, 8] was 220 ng/mL. For the same molecule, the concentration at -0.08 h [1, 8] was 0 ng/mL, the concentration at 0.08 h [1, 9] was 5240 ng/mL and the concentration at 0.17 h [1, 9] was 5870 ng/mL. For the same molecule, the concentration at 0.25 h [1, 9] was 3430 ng/mL, the concentration at 0.5 h [1, 9] was 1320 ng/mL and the concentration at 1 h [1, 9] was 360 ng/mL. It also gave a concentration at 2 h ([1]; plasma, IV neat R-107 88 mg/kg over 6 minutes, 2 hrs post dose) of 260 ng/mL, a concentration at -0.08 h [1, 9] of 0 ng/mL and a concentration at 0.08 h [1, 10] of 1.32 ng/mL. It also gave a concentration at 0.17 h [1, 10] of 0.715 ng/mL, a concentration at 0.5 h [1, 10] of 0.345 ng/mL and a concentration at 1 h [1, 10] of 0.11 ng/mL. The concentration at 2 h ([1]; plasma, oral, capsule per os of neat R-107 88 mg/kg, 2 hrs post dose) was 0.222 ng/mL, the concentration at 3 h ([1]; plasma, oral, capsule per os of neat R-107 88 mg/kg, 3 hrs post dose) was 0.11 ng/mL and the concentration at 4 h ([1]; plasma, oral, capsule per os of neat R-107 88 mg/kg, 4 hrs post dose) was 0.122 ng/mL. The Density (Density of R-107) was 1.12, the “Efficacy in minipig model of limb ischemia-reperfusion injury” value [2] was “Effective” and the “Efficacy in rat model of contrast-induced nephropathy” value [3] was “Effective”. The “Stability / conversion upon exposure to plasma” value [4] was “readily converted to its corresponding 1-pyrrolidinyloxy derivative R-100” and the “Efficacy in rat model of renal ischemia-reperfusion injury” value [5] was “Effective”.

Source: US9604932B2 (priority 2013, dated 2017)
